# In patent US20190183910A1, “ENHANCING DNA REPAIR AND PREVENTING AGING AND ITS CONSEQUENCES IN REPRODUCTIVE AND OTHER CELLS” (NEW YORK MEDICAL COLLEGE, priority 2016, published 2019):
# Legend:
# Assay type in all cases: cell-based
# mouse sperm [1] = assay: Reactive oxygen species in mouse sperm; conditions: as a result of S1P treatment
# Method: (§1) Treatment was performed with genotoxic stress (1 mM H2O2), S1P (200 μM), and S1P with genotoxic stress and control in culture for one hour. Also, the use of an ATM inhibitor was utilized (10 μM) (KU-55593, Abcam) (Li et al., 2014). We assessed DNA damage, apoptosis, and chromatin integrity. We also studied the DNA DSB repair gene expression by qRT-PCR in sperm lysates.
# mouse sperm [2] = assay: DNA DSBs by γH2AX expression in S1P-treated mouse sperm; conditions: for DNA DSBs as reported by γH2AX expression: culture 1 hour, n=9, mean±SEM
# Method: as §1
# DNA damage assessment of testicular tissue from mice utilized a Ser139 phosphorylation-specific γH2AX antibody (IHC-00059; Bethyl Laboratories) performed with enzymatic diaminobenzidine staining (Vector). Histone H2AX, one of the several variants of the nucleosome core histone H2A, becomes phosphorylated on Ser139 in response to DSBs (γH2AX). Within seconds of DSB formation, γH2AX foci are formed at the site of DNA damage, which can be detected by confocal microscopy or immunohistochemistry to quantify DNA damage. Foci of γH2AX represent DDR in a 1:1 manner, enabling sensitive quantification of potential DSBs (Katsube et al., 2014). Primordial follicles containing a γH2AX-positive oocyte were considered to be DNA-damaged (Rogakou et al., 1998). Sperm were assessed for DNA damage with antibody to γH2AX (613402; BioLegend) and secondary antibody Alexa Fluor 488 (A-11029; Invitrogen), followed by nuclear counterstaining with diamidino-2-phenylindole (DAPI; Fisher Scientific). Immunofluorescence for SD sperm samples was measured by FACScan flow cytometer (Becton-Dickinson) or laser scanning cytometry (Halicka et al., 2008).
# mouse sperm [3] = assay: Susceptibility of DNA to denaturation by AO staining in mouse sperm; conditions: as a result of S1P treatment
# Method: as §1
# DNA integrity of mouse sperm were assessed via flow cytometry using acridine orange (AO) staining (Hawley and Hawley, 2004). AO fluoresces green when attached to native DNA, and fluoresces red when attached to fragmented DNA. Basically, after induction of denaturation by heat or acid the denatured DNA (ssDNA) stains metachromatically red with AO while dsDNA stains green. When the sample has ≥50% green fluorescence, the sample is of good quality. Similarly, AO was used to assess sperm chromatin structure by measuring its intensity of fluorescence, which is the ratio of red/(red+green) yields the percentage of DNA fragmentation (also known as DNA fragmentation index, or DFI %).
# BRCA1 = assay: qRT-PCR DNA DSB repair gene expression in mouse sperm lysates, BRCA1
# Method: as §1
# (§2) Sperm pellets previously snap-frozen in PBS were thawed. RNA was extracted using the trizol method (Rio et al., 2010). The quality and quantity of the RNA were measured with NanoDrop 2000 from Thermo Scientific. RNA (2 μg) from each sample was taken for reverse transcription with dTVN and N9 primers and SuperScript III reverse transcriptase, all procured from Invitrogen. The resulting cDNA was used to perform real-time qPCR with SYBR Green on an Applied Biosystems 7900HT Real-Time PCR machine was used. To determine the relative expression of various DNA repair genes in mouse sperm, we used the ΔΔCt method, which makes use of the expression of housekeeping genes. GAPDH was used as housekeeping gene. Primers were procured from Integrated DNA technologies (IDT) (Table 3).
# DMC1 = assay: qRT-PCR DNA DSB repair gene expression in mouse sperm lysates, DMC1
# Method: as §1, §2
# [4] = S1P in the presence of genotoxic stress, n=9, mean±SEM
smiles,measurement,setting,value
"CCCCCCCCCCCCC/C=C/[C@@H](O)[C@@H](N)COP(=O)(O)O [S1P, sphingosine 1 phosphate]",reactive oxygen species,mouse sperm [1],no significant difference
same,DNA DSBs as reported by γH2AX expression,mouse sperm [2]; S1P (200 μM) in the presence of genotoxic stress (1 mM H2O2),8.29±1.45
same,DNA DSBs as reported by γH2AX expression,mouse sperm [2]; S1P alone (200 μM),8.94±1.48
same,DNA integrity (protective effect of S1P),"mouse sperm [2]; in the presence of an ATM inhibitor (10 μM KU-55593), n=9",ATM inhibition reversed the protective effects
same,susceptibility of DNA to denaturation by AO staining,mouse sperm [3],no significant difference
same,BRCA1 expression (qRT-PCR),"BRCA1; S1P alone, n=9, mean±SEM",0.471±0.602
same,BRCA1 expression (qRT-PCR),BRCA1; [4],0.755±0.378
same,BRCA1 expression (qRT-PCR),BRCA1; S1P treatment with ATM inhibitor,blocked the S1P induced increase
same,DMC1 expression (qRT-PCR),"DMC1; S1P alone, with ATM inhibitor, n=8, mean±SEM",0.027±0.014
same,DMC1 expression (qRT-PCR),DMC1; [4],0.029±0.04
same,DMC1 expression (qRT-PCR),"DMC1; S1P with genotoxic stress, with ATM inhibitor, n=8, mean±SEM",0.0035±0.005
